The values that follow come from ChEMBL document CHEMBL6153026, “Small-Molecule Modulators Targeting Coactivator-Associated Arginine Methyltransferase 1 (CARM1) as Therapeutic Agents for Cancer Treatment: Current Medicinal Chemistry Insights and Emerging Opportunities” (J Med Chem, 2025).

The subject of data set [1] is DU-145. The data set can be described thus: Antiproliferative activity against human DU-145 cells assessed as reduction in cell viability incubated for 72 hrs by MTT assay. The data set is classed as functional, cell-based. The following applies: DU-145, 72 h. Background: Tetrazolium dyes change colour on reduction, which living cells bring about.
Data set [2] deals with T1, Histone-arginine methyltransferase CARM1 (Homo sapiens, UniProt Q86X55).
T1 sequence (Q86X55 whole entry): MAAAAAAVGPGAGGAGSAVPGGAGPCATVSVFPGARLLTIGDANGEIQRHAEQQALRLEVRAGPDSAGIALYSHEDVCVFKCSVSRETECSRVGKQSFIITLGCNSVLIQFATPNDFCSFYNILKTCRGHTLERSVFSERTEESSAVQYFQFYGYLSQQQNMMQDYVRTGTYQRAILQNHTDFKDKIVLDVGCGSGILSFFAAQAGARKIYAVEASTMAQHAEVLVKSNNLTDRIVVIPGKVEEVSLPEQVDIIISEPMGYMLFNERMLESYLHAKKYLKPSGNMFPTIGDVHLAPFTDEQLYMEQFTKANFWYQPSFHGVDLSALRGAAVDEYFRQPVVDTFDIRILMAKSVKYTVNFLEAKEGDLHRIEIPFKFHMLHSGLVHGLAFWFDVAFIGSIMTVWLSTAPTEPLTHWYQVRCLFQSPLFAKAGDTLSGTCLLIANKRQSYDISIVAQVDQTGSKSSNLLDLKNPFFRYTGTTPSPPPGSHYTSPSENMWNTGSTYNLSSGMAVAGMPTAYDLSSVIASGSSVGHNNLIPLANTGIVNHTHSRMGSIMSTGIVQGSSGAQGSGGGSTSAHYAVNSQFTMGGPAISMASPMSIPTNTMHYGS
Kind of data set: Inhibition of CARM1 (unknown origin).

Data set [3] deals with Protein arginine N-methyltransferase 5 (Homo sapiens, UniProt O14744). The data set can be described thus: Inhibition of PRMT5 (unknown origin).
Chain of Protein arginine N-methyltransferase 5 (O14744 whole entry): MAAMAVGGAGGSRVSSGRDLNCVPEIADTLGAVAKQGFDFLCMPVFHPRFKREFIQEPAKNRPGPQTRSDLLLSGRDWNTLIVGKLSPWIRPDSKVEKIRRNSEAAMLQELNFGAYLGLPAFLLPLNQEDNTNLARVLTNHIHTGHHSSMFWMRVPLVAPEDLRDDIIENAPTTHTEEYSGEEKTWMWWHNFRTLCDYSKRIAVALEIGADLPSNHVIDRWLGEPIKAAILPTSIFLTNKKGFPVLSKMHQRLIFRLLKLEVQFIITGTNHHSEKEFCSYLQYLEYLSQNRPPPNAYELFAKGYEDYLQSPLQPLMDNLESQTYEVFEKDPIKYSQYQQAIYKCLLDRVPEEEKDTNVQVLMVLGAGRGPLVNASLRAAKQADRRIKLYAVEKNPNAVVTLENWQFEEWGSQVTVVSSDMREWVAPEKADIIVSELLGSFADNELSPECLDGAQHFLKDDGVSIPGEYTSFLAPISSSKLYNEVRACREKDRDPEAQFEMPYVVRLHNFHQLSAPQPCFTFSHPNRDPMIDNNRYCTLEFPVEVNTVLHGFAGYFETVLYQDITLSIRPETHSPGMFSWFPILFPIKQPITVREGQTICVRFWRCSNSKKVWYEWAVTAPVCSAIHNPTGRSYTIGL
The target in data set [4] is Protein arginine N-methyltransferase 6 (Homo sapiens, UniProt Q96LA8). The data set can be described thus: Inhibition of PRMT6 (unknown origin) by scintillation proximity assay.
Chain of Protein arginine N-methyltransferase 6 (Q96LA8 whole entry): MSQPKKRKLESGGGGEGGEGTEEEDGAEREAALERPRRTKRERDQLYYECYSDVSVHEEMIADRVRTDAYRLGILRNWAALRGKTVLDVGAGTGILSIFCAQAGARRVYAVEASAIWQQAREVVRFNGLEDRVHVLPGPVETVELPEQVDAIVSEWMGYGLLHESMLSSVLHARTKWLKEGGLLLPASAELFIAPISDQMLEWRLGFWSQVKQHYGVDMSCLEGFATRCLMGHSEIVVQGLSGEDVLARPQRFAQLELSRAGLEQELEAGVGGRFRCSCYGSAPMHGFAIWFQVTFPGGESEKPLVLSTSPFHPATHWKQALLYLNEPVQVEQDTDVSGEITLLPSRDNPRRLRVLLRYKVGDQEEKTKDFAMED
For data set [5], the species on record is Homo sapiens. The data set can be described thus: Selectivity ratio of IC50 for human PRMT6 to IC50 for human PRMT4.
Data set [6] deals with MV4-11. Kind of data set: Antiproliferative activity against human MV4-11 cells assessed as reduction in cell viability. The format is functional, cell-based.
The target in data set [7] is T1, Histone-arginine methyltransferase CARM1. The data set can be described thus: Inhibition of PRMT4 (unknown origin).
For data set [8], the system named is MCF7. Kind of data set: Cytotoxicity against human MCF7 cells assessed as reduction in cell viability by MTS assay. The data set is classed as functional, cell-based.
In data set [9] the target is T1, Histone-arginine methyltransferase CARM1. Kind of data set: Inhibition of GST-tagged CARM1 (unknown origin) extracted form Escherichia coli BL21 (DE3) by MTase-Glo reagent based luminometer analysis.
The target is the same in data set [10]. Kind of data set: Inhibition of human N-terminal 6xHis-tagged CARM1 catalytic domain (140 to 480 residues) using histone H3 as substrate and SAM as cofactor by radiometric HotSpot assay.
For data set [11] the target is unchanged. The data set can be described thus: Inhibition of C-terminal His-tagged human CARM1 catalytic domain (135 to 479 residues) extracted from Escherichia coli BL21 CodonPlus (DE3)-RIL cells using (H3(3-31)) as substrate by enzymatic assay.
The target of data set [12] is Protein arginine N-methyltransferase 3 (Homo sapiens, UniProt O60678). The data set can be described thus: Inhibition of PRMT3 (unknown origin).
Chain of Protein arginine N-methyltransferase 3 (O60678 whole entry): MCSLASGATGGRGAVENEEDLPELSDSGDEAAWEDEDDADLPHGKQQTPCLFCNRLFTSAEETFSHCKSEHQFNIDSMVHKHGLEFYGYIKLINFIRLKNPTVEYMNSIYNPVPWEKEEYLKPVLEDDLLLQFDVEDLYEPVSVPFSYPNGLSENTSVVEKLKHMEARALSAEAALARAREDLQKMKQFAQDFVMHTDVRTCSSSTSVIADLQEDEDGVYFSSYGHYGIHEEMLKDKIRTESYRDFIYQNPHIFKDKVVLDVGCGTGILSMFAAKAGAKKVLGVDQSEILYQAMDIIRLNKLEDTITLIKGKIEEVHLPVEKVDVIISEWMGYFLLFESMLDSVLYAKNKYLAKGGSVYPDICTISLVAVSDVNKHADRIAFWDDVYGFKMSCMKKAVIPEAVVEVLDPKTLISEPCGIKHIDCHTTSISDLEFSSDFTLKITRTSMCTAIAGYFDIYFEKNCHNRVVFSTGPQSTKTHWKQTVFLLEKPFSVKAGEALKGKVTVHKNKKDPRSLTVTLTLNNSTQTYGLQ
The nature of data set [13]: Lipophilicity, logP of compound. The following applies: octanol/water. The data set is classed as physicochemical.
In data set [14] the test system is ASPC1. Kind of data set: Antitumor activity in human ASPC1 cells xenografted in BALB/c nude mouse assessed as tumor growth inhibition at 100 mg/kg, relative to control. The data set is classed as functional. Also on record: scale not given: the % may be the effect or the level left. In general terms: Xenograft models place foreign cells or tissue in a host animal.

Take `CNCCNCc1cccc(-c2nc(Nc3cccc(OCCCCCCC(=O)NO)c3)c(C)c(-c3ccnc4[nH]ccc34)n2)c1`: in data set [1], the 50% inhibitory concentration (IC50) was less than 1000 nM.
`N=C(NCCCN(CCNC(=O)NCc1ccccc1)C[C@H]1O[C@@H](n2cnc3c(N)ncnc32)[C@H](O)[C@@H]1O)Nc1cccc(Br)c1`: in data set [2], the IC50 was less than 1 nM.
The same measure, in the same setting: then `OCCNCCNCc1ccccc1OCc1ccc(Cl)cc1Cl`, with 42400 nM.
Compound `NC(=O)[C@@H](N)CCCNCNCCCSC[C@H]1O[C@H](n2cnc3c(N)ncnc32)[C@H](O)[C@@H]1O` registered an IC50 in data set [3] of 0.42 nM.
Take `NCCN1CCC(Cc2ccccc2)CC1`: in [4], half-maximal inhibition (IC50) was put at 300 nM.
`C[C@H](N)C(=O)Nc1ccc2c(c1)c(-c1cccc(S(=O)(=O)N(C)C)c1)cn2C`: in [2], the IC50 was less than 2 nM. Further, the Ratio IC50 in [5] is greater than 500.
Consider `CNCCN(C)Cc1ccccc1OCc1cccc(Cl)c1Cl`, for which the concentration for half-maximal inhibition (IC50) in data set [6] amounted to 4.55 µM.
With `C[C@H](N)C(=O)Nc1ccc2[nH]nc(-c3cccc(S(=O)(=O)N(C)C)c3)c2c1`, the values for the IC50 in data set [2] and in data set [7] were 500 nM and 60 nM, respectively.
Consider `CNCC(=O)N1CCOc2c(O)cc(-c3cccc(Cl)c3)cc2C1`, for which the IC50 in data set [8] was found to be 8.26 µM; in data set [9], 42.2 µM.
The compound `COC1CCC(CCNC(=O)[C@H](CC[C@H](CNCc2ccccc2)C[C@H]2O[C@@H](n3cnc4c(N)ncnc43)[C@H](O)[C@@H]2O)NC(=O)CC(C)(C)C2=C(C)C(=O)C(C)=C(C)C2=O)CC1` (stereo partly drawn) came in with a half-maximal inhibitory concentration (IC50) in data set [10] of 43 nM.
`C[S+](CC[C@H](N)C(=O)[O-])C[C@H]1O[C@@H](n2cnc3c(N)ncnc32)[C@H](O)[C@@H]1O` (stereo partly drawn) [ADEMETIONINE]: the half-inhibitory concentration (IC50) in [2] came out at 2.8 nM.
`C[C@H](N)C(=O)Nc1ccc2[nH]cc(-c3cccc(S(C)(=O)=O)c3)c2c1`: the Ratio IC50 in data set [5] came out at 197.
In the case of `Nc1ncnc2c1ncn2[C@H]1O[C@@H](CN(CCCNc2ccccn2)CC[C@H](N)C(=O)O)[C@H](O)[C@@H]1O`, the 50% inhibitory concentration (IC50) in [11] turned out to be 1110 nM.
On to `Nc1ncnc2c1ncn2[C@@H]1O[C@H](CSCC[C@H](N)C(=O)O)[C@@H](O)[C@H]1O` [S-ADENOSYLHOMOCYSTEINE], for which, in [12], the IC50 was less than 5 nM.
`CCOC(=O)c1cc(C(=O)NCc2ccccc2CCC(F)(F)F)n(-c2cccc(NC(=O)[C@H](C)N)c2)c1`: the logP in data set [13] is 4.48. For the same compound, the IC50 in data set [2] was found to be 780 nM.
The like results for `C[C@H](N)C(=O)NCc1cccc(-n2cc(C(F)(F)F)cc2C(=O)NCc2ccccc2)c1` were, in that order, 3.8 and 7230 nM.
On to `CNC[C@@H](O)COc1ccc(Cl)c(-c2nc(-c3c(C)noc3C)c(C)c(N3CC4(CCN(C(=O)OC)CC4)C3)n2)c1`, for which the Activity in [14] was 52%.
In data set [11], `NCCCN(CCCNc1ccccn1)C[C@@H]1O[C@H](n2cnc3c(N)ncnc32)[C@@H](O)[C@H]1O` displayed an IC50 of 1140 nM.

In general, IC50 refers to the point on the concentration scale where inhibition reaches its midpoint. By logP is commonly meant a log measure of how a compound divides between an organic and an aqueous phase.
